Source: the Deep4Chem optical property database
Where “and” joins values, the source holds several entries; their conditions need not be identical. Identical values can stand only once. Values belong to the compound of their own block, whether it stands above or below them.

Test: solvent given as SMILES

Compound: CC1=[N+]2C(=C(c3ccc(C#N)cc3)c3ccc(C)n3[B-]2(F)F)C=C1
absorption maximum (in C1CCCCC1): 517 nm
absorption maximum (in C1CCOC1): 516 nm
absorption maximum (in CC#N): 512 nm
absorption maximum (in CCOC(C)=O): 513 nm
absorption maximum (in CO): 513 nm
absorption maximum (in Cc1ccccc1): 519 nm
absorption maximum (in ClC(Cl)Cl): 519 nm

Compound: N#Cc1cc2ccc([O-])cc2oc1=O
absorption maximum (in O): 408 nm

absorption maximum (in ClC(Cl)Cl): 581 nm
Compound: CC(C)(C)c1ccc(Oc2cc3c4c(cc(Oc5ccc(C(C)(C)C)cc5)c5c6c(Oc7ccc(C(C)(C)C)cc7)cc7c8c(cc(Oc9ccc(C(C)(C)C)cc9)c(c2c45)c86)C(=O)OC7=O)C(=O)OC3=O)cc1

absorption maximum (in O): 341 nm
Compound: CC1(C)C(=O)C=Cc2ccc(O)cc21

absorption maximum (in CCO): 471 nm
Compound: CC1(C)Nc2cc3nc4cc(Cl)c(Cl)cc4nc3cc2N1

Compound: COc1cc(C2=c3c(c4ccc(C(C)(C)C)cc4c4cc(C(C)(C)C)ccc34)=[N+]3C2=Nc2c(-c4cc(OC)c(OC)c(OC)c4)c4c5ccc(C(C)(C)C)cc5c5cc(C(C)(C)C)ccc5c4n2[B-]3(F)F)cc(OC)c1OC
absorption maximum (in Cc1ccccc1): 787 nm

absorption maximum (in CC#N): 349 nm
absorption maximum (in ClCCl): 350 nm
Compound: Cc1cc(O)c(C(=O)/C=C/c2ccc(Cl)cc2Cl)c(=O)o1

absorption maximum (in ClCCl): 557 nm
Compound: CC1=C(C2=C(C)C(C)=[N+]3C2=Cc2cc(C)c(C)n2[B-]3(F)F)C2=Cc3cc(C)c(C)n3[B-](F)(F)[N+]2=C1C

absorption maximum (in ClC(Cl)Cl): 372 nm
Compound: CCCCc1c2c(nc3ccccc13)-c1cc3c(cc1CC2)-c1nc2ccccc2c(CCCC)c1CC3

absorption maximum (in O): 438 nm
Compound: CC[n+]1c(-c2ccccc2)c2cc(NC(=O)N[C@H]3C[C@@H]([NH3+])[C@H](O)[C@@H](O)[C@@H]3O)ccc2c2ccc(NC(=O)N[C@@H]3C[C@H]([NH3+])[C@@H](O)[C@@H](O)[C@H]3O)cc21

absorption maximum (in ClC(Cl)Cl): 470 nm
Compound: C[Si]1(C)O[Si](C)(C)c2cc3cc4cc5c(cc4cc3cc21)C(=O)c1cc2cc3cc4c(cc3cc2cc1C5=O)[Si](C)(C)O[Si]4(C)C

absorption maximum (in CO): 405 nm
Compound: COc1ccc2c(c1)SC1=Nc3sc4cc(OC)ccc4[n+]3CN12

Compound: FC(F)(F)C(F)(F)C(F)(F)C1=NC2=C(c3ccc4ccc5cccc6ccc3c4c56)C=C3c4cc(-c5ccc6ccc7cccc8ccc5c6c78)c5nc(C(F)(F)C(F)(F)C(F)(F)F)nc6c(-c7ccc8ccc9cccc%10ccc7c8c9%10)cc(c4c56)=C4C=C(c5ccc6ccc7cccc8ccc5c6c78)C(=N1)C2C34 (stereo unspecified)
absorption maximum (in C1CCOC1): 524 nm
absorption maximum (in Cc1ccccc1): 560 nm

absorption maximum (in ClCCl): 648 nm
Compound: CC(C)c1cccc(C(C)C)c1N1C(=O)c2ccc3cc4c(cc5ccc6c7c(ccc4c57)C(=O)N(c4c(C(C)C)cccc4C(C)C)C6=O)c4ccc(c2c34)C1=O

absorption maximum (in C1CCOC1): 407 nm
Compound: COc1cc2c(cc1-c1ccncc1)Cc1c3c(c4c(c1-2)-c1cc(OC)c(-c2ccncc2)cc1C4)C(=O)N(CCC(C)C)C3=O

Compound: O=c1oc2ccccc2c2cc(N3c4ccccc4Oc4ccccc43)ccc12
absorption maximum (in Cc1ccccc1): 395 nm

absorption maximum (in ClCCl): 345 nm
Compound: Oc1ccc(Br)cc1-c1nc2c(c3c1-c1ccccc1CC3)-c1ccccc1CC2

absorption maximum (in c1ccccc1): 368 nm
Compound: CON(C)C(=O)c1ccc(/C=C/c2ccc(/C=C/c3ccc(C(=O)N(C)OC)cc3)cc2)cc1

absorption maximum (in C1CCOC1): 816 nm
absorption maximum (in ClCCl): 826 nm
Compound: CCCCCCCc1ccc(C2=[N+]3C(=C4c5cc(OCC(CC)CC)c(-c6ccc(CCCCCCC)o6)n5[B-](F)(F)[n+]5c4n(c4cc(C(C)(C)C)ccc45)[B-]3(F)F)C=C2OCC(CC)CC)o1

absorption maximum (in ClCCl): 457 nm
Compound: COc1ccc2cc(C#CC3=C4CCc5ccccc5C4=[O+][B-](F)(F)O3)ccc2c1

absorption maximum (in ClCCl): 472 nm
Compound: F[B-]1(F)n2c(Oc3ccccc3)c(Cl)c3c2C(=C2C(Br)=C(Cl)C(Oc4ccccc4)=[N+]21)Oc1ccccc1-3

absorption maximum (in ClCCl): 359 nm and 375 nm
Compound: CCCCCC(=O)c1ccc2c3c(sc2c1)-c1ccccc1P3(=O)c1ccccc1 (stereo unspecified)

absorption maximum (in ClCCl): 543 nm
Compound: CN(C)c1ccc(C2=CC3=C(c4ccc(C=C(C#N)C#N)cc4)[C@H]4c5ccccc5[C@]3(S2)c2ccccc24)cc1

absorption maximum (in O): 649 nm
Compound: COc1ccccc1C1=C2C=CC(=[N+](C)C)C=C2[Si](C)(C)c2cc(N(C)C)ccc21

absorption maximum (in ClCCl): 542 nm
Compound: Cc1cccc2[n+]1[B-](c1ccccc1)(c1ccccc1)c1cccc3c4c5c(cccc5c-2c13)[B-](c1ccccc1)(c1ccccc1)[n+]1c(C)cccc1-4

absorption maximum (in ClC(Cl)Cl): 506 nm
Compound: CC1=CC(C)=[N+]2C1=C(c1ccc(I)cc1)c1c(C)cc(C)n1[B-]2(Oc1ccc(Cl)cc1)Oc1ccc(Cl)cc1

absorption maximum (in C1CCOC1): 400 nm
Compound: CC(C)(C)/C=C1\C=C(c2ccccc2)C=C1c1ccccc1

absorption maximum (in CC1CCCCC1): 446 nm
Compound: CC(C)(C)c1cc2c3cc(C(C)(C)C)c(-c4cc5cc6c7cccc8cccc(c9cc(C(C)(C)C)cc(c5cc4C(C)(C)C)c96)c87)cc3cc3c4cccc5cccc(c(c1)c23)c54

absorption maximum (in ClCCl): 553 nm
Compound: F[B-]12Oc3ccccc3-c3c4[n+]5c(c([n+]31)-c1ccccc1O2)-c1ccccc1O[B-]5(F)Oc1ccccc1-4

absorption maximum (in O): 507 nm
Compound: COc1cc(N2CCOCCOCCN(c3cc(OC)c(NC(=O)c4ccc(-c5c6cc(Cl)c(=O)cc-6oc6cc([O-])c(Cl)cc56)c(C(=O)[O-])c4)cc3OC)CCOCC2)c(OC)cc1NC(=O)c1ccc(-c2c3cc(Cl)c(=O)cc-3oc3cc([O-])c(Cl)cc23)c(C(=O)[O-])c1

absorption maximum (in CC#N): 339 nm
absorption maximum (in CN(C)C=O): 353 nm
absorption maximum (in ClCCl): 344 nm
Compound: CCN(CC)c1ccc(/C=N/CC/N=C/c2ccc(N(CC)CC)cc2O)c(O)c1

absorption maximum (in CC#N): 305 nm
absorption maximum (in ClCCl): 305 nm
Compound: COc1ccc2nc(N)sc2c1

absorption maximum (in ClC(Cl)Cl): 723 nm
Compound: COc1ccc(-c2cc3c(o2)=CC2=C(C(F)(F)F)c4cc5oc(-c6ccc(OC)cc6)cc5n4[B-](F)(F)[N+]=32)cc1

Compound: CC1=C(C(C)(C)C)C(C)=[N+]2C1=C(C)c1c(C)c(C(C)(C)C)c(C)n1[B-]2(F)F
absorption maximum (in C1CCCCC1): 529 nm
absorption maximum (in C1CCOC1): 525.1 nm
absorption maximum (in C1COCCO1): 525.1 nm
absorption maximum (in CC#N): 520.8 nm
absorption maximum (in CC(C)=O): 522.5 nm
absorption maximum (in CC(C)CC(C)(C)C): 527.5 nm
absorption maximum (in CCC(C)C): 527.1 nm
absorption maximum (in CCCC(C)=O): 523.7 nm
absorption maximum (in CCCCCC): 527.5 nm
absorption maximum (in CCCCCCCCO): 527.3 nm
absorption maximum (in CCCCCCO): 526.7 nm
absorption maximum (in CCCCO): 526.1 nm
absorption maximum (in CCCCOC(C)=O): 524.3 nm
absorption maximum (in CCCO): 525.3 nm
absorption maximum (in CCO): 524.3 nm
absorption maximum (in CCOC(C)=O): 523.2 nm
absorption maximum (in CCOCC): 525.1 nm
absorption maximum (in CN(C)C=O): 524 nm
absorption maximum (in CNC=O): 522.3 nm
absorption maximum (in CO): 522.9 nm
absorption maximum (in COC(C)=O): 522.5 nm
absorption maximum (in OCC(F)(F)F): 521.6 nm

Compound: COc1cc2c(cc1/C=C(\C#N)c1nc3ccccc3s1)c1ccccc1n2C
absorption maximum (in C1CCOC1): 433 nm
absorption maximum (in CC#N): 431 nm
absorption maximum (in CCOC(C)=O): 430 nm
absorption maximum (in CN(C)C=O): 439 nm
absorption maximum (in CO): 437 nm
absorption maximum (in CS(C)=O): 443 nm
absorption maximum (in Cc1ccccc1): 431 nm
absorption maximum (in ClC(Cl)Cl): 434 nm
absorption maximum (in ClCCl): 435 nm

Compound: COc1ccc2c3cccc4c(OC)ccc(c5cccc1c52)c43
absorption maximum (in C1CCOC1): 458 nm
absorption maximum (in Cc1ccccc1): 459 nm
absorption maximum (in ClC(Cl)(Cl)Cl): 460 nm
absorption maximum (in ClC(Cl)Cl): 459 nm
absorption maximum (in ClCCl): 459 nm
absorption maximum (in c1ccncc1): 463 nm

absorption maximum (in O): 400 nm
Compound: Clc1ccc2cc3cccc[n+]3cc2c1

absorption maximum (in ClCCl): 338 nm
Compound: CC(C)(C)NC(=O)c1ccc(Br)c2ccc3c4ccc(F)cc4c4cc(F)ccc4c3c12

absorption maximum (in C1CCCCC1): 350 nm
Compound: CCCC1(CCC)c2cc(-c3ccc(OC)cc3)ccc2-c2ccc(-c3ccc4c(c3)C(CCC)(CCC)c3cc(-c5ccc(OC)cc5)ccc3-4)cc21

absorption maximum (in ClCCl): 311 nm
Compound: COC(=O)C1=C(C(=O)OC)C2(c3ccccc3-c3c(C(=O)OC)cccc32)[C@@H](c2ccc(Cl)cc2)C=C2c3cc(OC)c(OC)cc3CCN21 (stereo partly specified)

absorption maximum (in CO): 369 nm
Compound: Brc1cnc(-c2ccc(N(c3ccccc3)c3ccccc3)cc2)s1

absorption maximum (in ClCCl): 407 nm
Compound: Fc1ccc(C#Cc2nc(C#Cc3ccc(F)cc3)c(C#Cc3ccc(F)cc3)c(C#Cc3ccc(F)cc3)c2C#Cc2ccc(F)cc2)cc1

Compound: CC(C)(C)c1ccc2c(c1)c1cc(C(C)(C)C)ccc1n2-c1ccc2oc3nc4oc5ccc(C(F)(F)F)cc5c4cc3c2c1
absorption maximum (in C1CCCCC1): 343 nm
absorption maximum (in C1CCOC1): 338 nm
absorption maximum (in CC#N): 336 nm
absorption maximum (in CS(C)=O): 337 nm
absorption maximum (in Cc1ccccc1): 343 nm
absorption maximum (in ClC(Cl)Cl): 345 nm

absorption maximum (in ClCCl): 400 nm
Compound: [O-][n+]1c(/C=C/C=C/c2ccccc2)nc(N2CCOCC2)c2c1CCCC2

Compound: CC(=O)OC[C@H]1O[C@@H]([C@@H]2C=CC(=S)NC2=O)[C@H](OC(C)=O)[C@@H]1OC(C)=O
absorption maximum (in ClC(Cl)(Cl)Cl): 420 nm

absorption maximum (in CC#N): 555 nm
absorption maximum (in CCO): 541 nm
absorption maximum (in CN(C)C=O): 560 nm
absorption maximum (in O): 552 nm
Compound: CCOC(=O)c1ccccc1-c1c2ccc(=[N+](CC)CC)cc-2oc2cc(N(CC)CC)ccc12

Compound: CC(C)(C)c1ccc2c(c1)Sc1cc(C(C)(C)C)ccc1N2c1ccc2c(ccc3nc4ccc5cc(N6c7ccc(C(C)(C)C)cc7Sc7cc(C(C)(C)C)ccc76)ccc5c4nc32)c1
absorption maximum (in C1CCCCC1): 451 nm
absorption maximum (in C1CCOC1): 452 nm
absorption maximum (in Cc1ccccc1): 451 nm

Compound: CC(C)(C)c1ccc2c3c(c4ccc(C(C)(C)C)cc4c2c1)=[N+]1C(=C(c2ccccc2)c2c(Br)c4c5ccc(C(C)(C)C)cc5c5cc(C(C)(C)C)ccc5c4n2[B-]1(F)F)C=3Br
absorption maximum (in C1CCCCC1): 689 nm
absorption maximum (in C1CCOC1): 686 nm
absorption maximum (in CC#N): 682 nm
absorption maximum (in Cc1ccccc1): 691 nm
absorption maximum (in ClCCl): 689 nm

absorption maximum (in ClCCl): 533 nm
Compound: F[B-]1(F)N2C=CN=CC2=[N+]2[N+]1=Cc1c(-c3ccccc3)cc(-c3cccs3)n1[B-]2(F)F

Compound: C(#Cc1nc2ccccc2s1)c1ccc(N(c2ccccc2)c2ccccc2)cc1
absorption maximum (in Cc1ccccc1): 388 nm

absorption maximum (in O): 537 nm
Compound: O=C([O-])c1c(Cl)c(Cl)c(Cl)c(Cl)c1-c1c2cc(Cl)c(=O)c(Cl)c-2oc2c(Cl)c(O)c(Cl)cc12
